The results in this text go back to patent US12642827B2, “Lactic acid bacteria strain—antibacterial peptides produced by said strain and related pharmaceutical compositions” (UNIVERSITE DE LILLE, priority 2019, dated 2026).

Ends that are not written are not given here. His‑tag = His-Tag tail of six histidine residues (6 His), attached at the N- or C-terminal end

What all share (format): cell-based, Escherichia coli
Assay [1] concerns E. coli colistin-resistant strain. Put plainly: Anti-E. coli activity (AU/mL) of recombinant peptides. The conditions noted are these: purified on Ni-NTA, adjusted to pH 5. From the text:
Each of the orf coding for putative bacteriocin was cloned in expression vector suitable for E. coli competent cells. Each orf was cloned under the control of the inducible T7 promoter and with His-Tag (6 His) tail positioned on the N-terminal or C-terminal part. The cloning of each orf at the N- or C-terminal position of Histag tail, has led to 10 recombinant plasm ids. Each of these recombinant plasm ids was introduced in E. coli BL21 (DE3)(plysS) competent cells. The successfully transformed E. coli was regenerated in SOC medium for 1 h at 37° C. with shaking at 160 rpm, and then selected on Luria-Bertani (LB) agar medium supplemented with ampicillin (100 μg mL^−1) and chloramphenicol (30 μg mL^−1) (Sigma Aldrich). After overnight incubation at 37° C., the obtained colonies on LB agar medium with antibiotics were checked for the presence of the recombined plasmid containing the appropriate cloned orfs by PCR using specific primers.
Overnight culture of E. coli strain BL21(DE3)(pLysS), harboring each recombinant plasmid, was diluted to 1% (vol/vol) in LB medium containing ampicillin (100 μg mL^−1) and chloramphenicol (30 μg mL^−1) and then grown aerobically at 37° C. […]
Then the obtained solution was adjusted to pH 5 using acetic acid and then its activity (AU/mL) against E. coli colistin-resistant strain was evaluated, as described previously.

Assay [2] has as its system E. coli 184. The conditions noted are these: E. coli 184, mcr-1+. Here is the method: (§1) The cell-free supernatant (CFS) was obtained by centrifugation (8 000 g, 10 min, 4° C.) of a culture of L. paracasei I-CNCM 5369 grown without shaking on MRS medium for 24 to 30 h at 37° C. Then 40 mL of the obtained CFS was loaded onto a reversed phase C18 (Agilent, USA) cartridge. Afterwards, a washing step was performed with 10% (v/v) acetonitrile followed-up by an elution with 40 mL of 20% (v/v) acetonitrile solution in order to eluate the active fraction. The active fraction was dried using SpeedVac and resuspended in 1:10 of the initial volume of ultrapure water. The resulting active solution was designed as fraction E20 (or E20% particularly in the figures) throughout the text. Fraction E20 was stored at 4° C. and therefore used for the different tests to characterize the anti-E. coli activity. Noteworthy, E20 fraction was tested against a panel of E. coli strains with different genotypes to examine their sensibility to the putative bacteriocin(s) contained in this fraction. This assessment was performed by the determination of the minimal inhibitory concentration (MIC) values, which were ranging from 250 to 2 000 μg/mL (Table 5).
(§2) E20 fraction prepared from L. paracasei I-CNCM 5369, was half-diluted and mixed with colistin at a concentration ranging from 1 to 128 μg/mL in BHI medium. The resulting formulations were tested against E. coli 184, carrying the mcr-1 gene, as well as on other E. coli strains (Table 6). After an overnight period of incubation at 37° C., the growth of E. coli strains was checked by spectrophotometry at OD600 nm, and new MIC values of colistin/E20 were determined. […] Indeed, the decreased from 8 to 2 μg/mL in the presence of E20 fraction. This synergetic interaction was as well observed for other E. coli strains, where the MIC values decreased twice for E. coli E4A4WT, 4 times folds for E. coli 289 and 8 times for E. coli E4A4 variant. […] The weight composition of the mixture of E20 fraction+colistin is indicated in brackets next to the MIC value. The first value refers to the amount of colistin in μg/mL, whereas the second in brackets refers to the amount of E20 fraction in μg/mL).
(§3) The alginate nanoparticles (Alg NPs) were obtained by a top down process (ball milling) and used at a concentration of 500 μg/mL. The E20 fraction was mixed at a concentration of 60 μg/mL with this suspension, which corresponds to 12% of the used Alg NPs concentration. […] To gain insights on the effects of alginate nanoparticles, colistin was also loaded on Alg NPs and the resulting formulation (colistin-Alg NPs) was tested against same target E. coli strains.

In assay [3] the test system is E. coli 289. The conditions noted are these: E. coli 289, mcr-1−. Here is the method: as §1, §2, §3
The test system of assay [4] is E. coli SBS36. As to conditions: E. coli SBS36, truncated LPS. Here is the method: as §1, §2, §3
Assay [5] has as its system E. coli TOP10. The conditions noted are these: E. coli TOP10, LPS-. Here is the method:
as §1, §2, §3

In assay [6] the test system is E. coli CIP7628. In words: MIC determination. The conditions noted are these: E. coli CIP7628, reference strain. Here is the method:
as §1
The alginate nanoparticles (Alg NPs) were obtained by a top down process (ball milling) and used at a concentration of 500 μg/mL. […]

The test system of assay [7] is E. coli ATCC8739. In words: MIC determination. The conditions noted are these: E. coli ATCC8739, reference strain. Here is the method: as §1
as §2, with “The first value refers to the amount of colistin in μg/mL, whereas the second in brackets refers to the amount of E20 fraction in μg/mL).” left out

The test system of assay [8] is E. coli E4A4 WT. Put plainly: MIC determination. The conditions noted are these: environmental strain. Here is the method:
as §1
as §2, with “The first value refers to the amount of colistin in μg/mL, whereas the second in brackets refers to the amount of E20 fraction in μg/mL).” left out

The subject of assay [9] is E. coli E4A4 variant. In words: MIC determination. As to conditions: colistin unsensibilised. Here is the method: as §1
as §2, with “The first value refers to the amount of colistin in μg/mL, whereas the second in brackets refers to the amount of E20 fraction in μg/mL).” left out

The test system of assay [10] is panel of E. coli strains. In words: Anti-E. coli activity / MIC over a panel of strains.
Assay [11] has as its system E. coli ATCC8739. In words: Killing curves. The conditions noted are these: BHI, inhibitory concentration (colistin 16 μg/mL), pH 4.5-5, 37° C. Here is the method:
The killing curves were determined on three E. coli strains, because of for their resistance or sensitivity to colistin. These strains were E. coli 184 (mcr-1), E. coli E4A4 variant with resistance to colistin, and E. coli ATCC8739 colistin-sensitive reference strain (Table 5). These strains were inoculated in BHI (Brain Heart Infusion) medium containing the semi-purified fraction of E20 fraction at inhibitory concentration. An untreated E. coli ATCC8739 control treated with inhibitory concentration of colistin (16 μg/mL) was also tested. The pH of the medium was adjusted to 4.5-5 in the various samples, which were incubated at 37° C. for 8 h. At regular intervals of time, samples were taken to determine the number of colony forming units per mL (CFU/mL) under each tested condition.
As depicted in the FIG. 2, the number of CFU/mL of the strains treated with E20 fraction decreased rapidly with no visible growth (0 CFU/mL), after 1 h of incubation. […] A similar data was obtained after 1 h of incubation for E. coli ATCC8739 treated with colistin (16 μg/mL).

Regarding “Orf10 HisTag C-ter: recombinant Orf010 peptide with C-terminal His-Tag expressed in E. coli BL21 (DE3) (pLysS) (MYTMTNLKDKELSQITGGFAFVIPVAAILGFLASDAWSHADEIAGGATSGWSLADKSHSL-{His‑tag}; not fully specified; listed as Lactobacillus paracasei)”, the “anti E. coli activity” value in assay [1] is 200 AU/mL.
Turning to colistin, the MIC came out at 8 µg/mL in [2]; 8 µg/mL in [3]; 2 µg/mL in assay [4]; 1 µg/mL in assay [5]; 1 µg/mL in assay [6]; 2 µg/mL in [7]. Also, the minimal inhibitory concentration (MIC) in assay [8] worked out at 2 µg/mL; in [9] it was 16 µg/mL. Also, the “colistin MIC of E. coli 184 compared to reference strain E. coli ATCC8739” value in [10] was “four folds higher”. For the same substance, the “incubation time to no visible growth (0 CFU/mL)” value in assay [11] was 1 h.

One may read the MIC as the smallest concentration in the dilution series that meets the test's criterion for growth inhibition.
